pIC50: −log10 of the molar value.

The assay deals with K562. The experiment in a line: In vitro cytotoxic concentration measured against human myelogenous leukemia K562 cells. In kind it is functional, cell-based.
Turning to `Cc1nc(O)c2cc(CSC(=S)N3CCN(c4ccc(F)cc4)CC3)ccc2n1`, the pIC50 (commonly −log10 of the IC50, conventionally taken in molar units) is 6.30.

Molecule `Cc1nc(O)c2cc(CS/C(S)=N/C3CCCCC3)ccc2n1` had a negative logarithm of the IC50 (pIC50) of 4.51. The value for `CCOC(=O)C1(c2ccccc2)CCN(C(=S)SCc2ccc3nc(C)nc(O)c3c2)CC1` was 5.06. To `Cc1nc(O)c2cc(CSC(=S)N3CCN(C(c4ccc(F)cc4)c4ccc(F)cc4)CC3)ccc2n1` belongs 5.37. To `Cc1nc(O)c2cc(CS/C(S)=N/C34CC5CC(CC(C5)C3)C4)ccc2n1` belongs 4.51; to `Cc1nc(O)c2cc(CS/C(S)=N/Cc3ccccc3)ccc2n1`, 5.40. In the case of `Cc1nc(O)c2cc(CS/C(S)=N/CCCN(C)C)ccc2n1`, the pIC50 is 4.59. The value for `Cc1nc(O)c2cc(CSC(=S)N3CCN(C)CC3)ccc2n1` was 4.97. To `Cc1nc(O)c2cc(CSC(=S)N3CCOCC3)ccc2n1` belongs 5.14. On to `Cc1nc(O)c2cc(CSC(=S)N3CC(C)OC(C)C3)ccc2n1` (centres undefined), for which the pIC50 is 5.43. The value for `Cc1nc(O)c2cc(CS/C(S)=N/Cc3ccco3)ccc2n1` was 5.68; that for `CCN(CC)C(=S)SCc1ccc2nc(C)nc(O)c2c1` was 5.36. To `CCOC(=O)C1CSCN1C(=S)SCc1ccc2nc(C)nc(O)c2c1` (centres undefined) belongs 4.96; to `Cc1nc(O)c2cc(CSC(=S)N3CCc4ccccc4C3)ccc2n1`, 5.48. Molecule `Cc1nc(O)c2cc(CSC(=S)N3CCN(Cc4ccccc4)CC3)ccc2n1` had a pIC50 of 5.13. `Cc1nc(O)c2cc(CSC(=S)N3CCCCC3)ccc2n1`: the pIC50 is 4.95.

Turning to `Cc1nc(O)c2cc(CSC(=S)N(C3CCCCC3)C3CCCCC3)ccc2n1`, the pIC50 was 5.12.

`CSC(=S)NCc1c[nH]c2ccccc12` [BRASSININ] had a pIC50 of 3.89.

On to `CN(Cc1cnc2nc(N)nc(N)c2n1)c1ccc(C(=O)N[C@@H](CCC(=O)O)C(=O)O)cc1` [METHOTREXATE], for which the pIC50 is 3.38.

The values are drawn from ChEMBL document CHEMBL1143510, “Synthesis and in vitro antitumor activity of 4(3H)-quinazolinone derivatives with dithiocarbamate side chains” (Bioorg Med Chem Lett, 2005).
